Results as given in the kinase profiling compilation of Christmann-Franck et al. (2016).
Where “and” joins values, the source holds several entries; their conditions need not be identical. Equal entries are not always repeated.

Experiments:
Assay in all cases: radiometric filter-binding kinase assay, Kinase HotSpot
Conditions in all cases: compound 0.5 µM; ATP 10 µM
ACVR1B (human) = ACVR1B (human) (UniProt P36896)
ADRBK1 (human) = ADRBK1 (human) (UniProt P25098)
AXL (human) = AXL (human) (UniProt P30530)
BMX (human) = BMX (human) (UniProt P51813)
CAMK4 (human) = CAMK4 (human) (UniProt Q16566)
CDK1 CCNA2 (human) = CDK1 CCNA2 (human) (UniProt P06493+P20248)
CHEK2 (human) = CHEK2 (human) (UniProt O96017)
CSK (human) = CSK (human) (UniProt P41240)
Sequence of CSK (human) (P41240 whole entry, looked up): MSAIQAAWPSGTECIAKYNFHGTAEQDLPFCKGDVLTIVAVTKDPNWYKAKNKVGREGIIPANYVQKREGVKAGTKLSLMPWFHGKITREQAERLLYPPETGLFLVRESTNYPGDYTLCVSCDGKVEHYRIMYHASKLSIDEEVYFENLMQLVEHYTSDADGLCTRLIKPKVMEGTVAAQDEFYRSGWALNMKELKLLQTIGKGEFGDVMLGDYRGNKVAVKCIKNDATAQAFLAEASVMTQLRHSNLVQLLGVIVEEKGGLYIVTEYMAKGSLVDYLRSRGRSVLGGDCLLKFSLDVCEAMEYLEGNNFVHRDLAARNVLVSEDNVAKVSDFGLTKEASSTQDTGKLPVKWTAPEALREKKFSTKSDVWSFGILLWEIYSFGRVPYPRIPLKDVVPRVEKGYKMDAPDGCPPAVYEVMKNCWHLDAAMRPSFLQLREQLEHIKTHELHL

DAPK3 (human) = DAPK3 (human) (UniProt O43293)
DDR2 (human) = DDR2 (human) (UniProt Q16832)
DYRK2 (human) = DYRK2 (human) (UniProt Q92630)
DYRK4 (human) = DYRK4 (human) (UniProt Q9NR20)
EPHA1 (human) = EPHA1 (human) (UniProt P21709)
EPHA8 (human) = EPHA8 (human) (UniProt P29322)
GRK4 (human) = GRK4 (human) (UniProt P32298)
GRK7 (human) = GRK7 (human) (UniProt Q8WTQ7)
GSG2 (human) = GSG2 (human) (UniProt Q8TF76)
Sequence of GSG2 (human) (Q8TF76 whole entry, looked up): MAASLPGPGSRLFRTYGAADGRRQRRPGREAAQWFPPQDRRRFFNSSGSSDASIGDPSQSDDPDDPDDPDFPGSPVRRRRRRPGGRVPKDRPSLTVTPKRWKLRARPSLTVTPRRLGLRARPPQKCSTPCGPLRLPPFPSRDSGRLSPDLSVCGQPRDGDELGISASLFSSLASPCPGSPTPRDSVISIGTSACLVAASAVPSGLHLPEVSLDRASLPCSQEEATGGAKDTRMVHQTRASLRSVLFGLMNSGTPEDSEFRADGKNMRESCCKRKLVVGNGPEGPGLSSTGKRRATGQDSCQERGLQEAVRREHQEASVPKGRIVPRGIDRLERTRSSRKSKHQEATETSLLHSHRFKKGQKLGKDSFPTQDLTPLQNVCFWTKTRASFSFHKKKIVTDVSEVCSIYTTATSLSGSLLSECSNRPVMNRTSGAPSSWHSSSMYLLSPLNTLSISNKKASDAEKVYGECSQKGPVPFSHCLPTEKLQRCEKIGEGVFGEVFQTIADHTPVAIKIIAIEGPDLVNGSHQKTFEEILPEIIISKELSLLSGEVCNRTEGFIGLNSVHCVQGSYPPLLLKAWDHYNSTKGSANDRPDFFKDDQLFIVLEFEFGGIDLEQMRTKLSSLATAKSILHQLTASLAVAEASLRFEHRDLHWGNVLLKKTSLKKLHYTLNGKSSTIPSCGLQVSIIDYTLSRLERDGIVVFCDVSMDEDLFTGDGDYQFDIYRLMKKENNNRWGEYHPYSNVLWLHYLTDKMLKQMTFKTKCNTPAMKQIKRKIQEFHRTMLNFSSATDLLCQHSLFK

GSK3B (human) = GSK3B (human) (UniProt P49841)
Sequence of GSK3B (human) (P49841 whole entry, looked up): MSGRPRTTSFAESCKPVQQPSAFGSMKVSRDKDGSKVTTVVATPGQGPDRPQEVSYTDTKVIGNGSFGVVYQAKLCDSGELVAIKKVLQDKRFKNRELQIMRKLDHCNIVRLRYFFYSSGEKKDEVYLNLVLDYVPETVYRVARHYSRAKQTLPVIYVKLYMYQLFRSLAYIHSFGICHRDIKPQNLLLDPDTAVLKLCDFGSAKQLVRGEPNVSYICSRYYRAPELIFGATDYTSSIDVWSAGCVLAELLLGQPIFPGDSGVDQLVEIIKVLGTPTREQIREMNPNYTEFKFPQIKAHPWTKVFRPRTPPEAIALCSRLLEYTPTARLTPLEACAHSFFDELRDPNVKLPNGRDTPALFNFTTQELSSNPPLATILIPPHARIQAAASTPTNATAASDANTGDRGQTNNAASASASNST

ITK (human) = ITK (human) (UniProt Q08881)
Sequence of ITK (human) (Q08881 whole entry, looked up): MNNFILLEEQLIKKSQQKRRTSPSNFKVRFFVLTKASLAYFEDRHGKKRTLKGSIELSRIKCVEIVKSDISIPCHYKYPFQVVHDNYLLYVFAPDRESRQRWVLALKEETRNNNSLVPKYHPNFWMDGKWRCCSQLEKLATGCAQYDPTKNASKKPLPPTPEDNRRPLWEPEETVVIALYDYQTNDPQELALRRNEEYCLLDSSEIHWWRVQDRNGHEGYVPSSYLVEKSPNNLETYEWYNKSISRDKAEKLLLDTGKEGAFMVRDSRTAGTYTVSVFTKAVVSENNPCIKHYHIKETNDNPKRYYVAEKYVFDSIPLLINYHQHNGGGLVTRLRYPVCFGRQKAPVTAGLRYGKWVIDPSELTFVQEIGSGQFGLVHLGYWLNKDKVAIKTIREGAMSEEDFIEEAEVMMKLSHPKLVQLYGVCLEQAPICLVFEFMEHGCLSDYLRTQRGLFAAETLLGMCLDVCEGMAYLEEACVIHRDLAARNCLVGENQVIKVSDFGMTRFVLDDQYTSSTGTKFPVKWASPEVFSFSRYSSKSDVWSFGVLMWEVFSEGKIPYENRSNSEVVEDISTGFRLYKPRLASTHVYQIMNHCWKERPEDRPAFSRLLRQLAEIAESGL

MAP2K2 (human) = MAP2K2 (human) (UniProt P36507)
MAP3K11 (human) = MAP3K11 (human) (UniProt Q16584)
MAP3K5 (human) = MAP3K5 (human) (UniProt Q99683)
MAP3K9 (human) = MAP3K9 (human) (UniProt P80192)
MAPK1 (human) = MAPK1 (human) (UniProt P28482)
MELK (human) = MELK (human) (UniProt Q14680)
MERTK (human) = MERTK (human) (UniProt Q12866)
NEK7 (human) = NEK7 (human) (UniProt Q8TDX7)
Sequence of NEK7 (human) (Q8TDX7 whole entry, looked up): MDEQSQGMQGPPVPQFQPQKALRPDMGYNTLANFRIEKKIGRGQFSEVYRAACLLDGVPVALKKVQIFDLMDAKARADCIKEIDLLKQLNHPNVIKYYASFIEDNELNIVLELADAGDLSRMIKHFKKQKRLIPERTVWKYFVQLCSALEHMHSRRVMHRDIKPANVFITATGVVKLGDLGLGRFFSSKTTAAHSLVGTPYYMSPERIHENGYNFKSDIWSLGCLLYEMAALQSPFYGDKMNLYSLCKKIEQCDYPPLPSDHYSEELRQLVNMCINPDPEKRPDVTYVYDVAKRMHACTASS

NTRK1 (human) = NTRK1 (human) (UniProt P04629)
PHKG1 (human) = PHKG1 (human) (UniProt Q16816)
PLK1 (human) = PLK1 (human) (UniProt P53350)
Sequence of PLK1 (human) (P53350 whole entry, looked up): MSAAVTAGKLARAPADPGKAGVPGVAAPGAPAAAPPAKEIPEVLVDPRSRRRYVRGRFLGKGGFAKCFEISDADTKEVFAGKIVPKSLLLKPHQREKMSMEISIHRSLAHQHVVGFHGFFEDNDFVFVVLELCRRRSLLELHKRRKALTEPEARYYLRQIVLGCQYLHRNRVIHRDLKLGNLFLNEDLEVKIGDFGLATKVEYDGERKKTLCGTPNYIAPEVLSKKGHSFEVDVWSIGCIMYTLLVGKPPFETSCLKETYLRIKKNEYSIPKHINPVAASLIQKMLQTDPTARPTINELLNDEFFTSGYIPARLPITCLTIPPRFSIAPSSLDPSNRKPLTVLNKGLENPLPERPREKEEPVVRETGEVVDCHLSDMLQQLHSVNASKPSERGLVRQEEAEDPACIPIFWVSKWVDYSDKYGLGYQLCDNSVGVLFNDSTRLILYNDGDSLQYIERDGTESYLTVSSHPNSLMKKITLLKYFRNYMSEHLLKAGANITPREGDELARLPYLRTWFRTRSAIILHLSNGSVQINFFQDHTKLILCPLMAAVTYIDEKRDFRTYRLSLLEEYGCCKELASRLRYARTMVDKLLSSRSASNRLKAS

PRKCZ (human) = PRKCZ (human) (UniProt Q05513)
PRKD3 (human) = PRKD3 (human) (UniProt O94806)
PRKG1 (human) = PRKG1 (human) (UniProt Q13976)
PTK6 (human) = PTK6 (human) (UniProt Q13882)
ROS1 (human) = ROS1 (human) (UniProt P08922)
STK33 (human) = STK33 (human) (UniProt Q9BYT3)
STK39 (human) = STK39 (human) (UniProt Q9UEW8)
TAOK2 (human) = TAOK2 (human) (UniProt Q9UL54)
TEK (human) = TEK (human) (UniProt Q02763)
Sequence of TEK (human) (Q02763 whole entry, looked up): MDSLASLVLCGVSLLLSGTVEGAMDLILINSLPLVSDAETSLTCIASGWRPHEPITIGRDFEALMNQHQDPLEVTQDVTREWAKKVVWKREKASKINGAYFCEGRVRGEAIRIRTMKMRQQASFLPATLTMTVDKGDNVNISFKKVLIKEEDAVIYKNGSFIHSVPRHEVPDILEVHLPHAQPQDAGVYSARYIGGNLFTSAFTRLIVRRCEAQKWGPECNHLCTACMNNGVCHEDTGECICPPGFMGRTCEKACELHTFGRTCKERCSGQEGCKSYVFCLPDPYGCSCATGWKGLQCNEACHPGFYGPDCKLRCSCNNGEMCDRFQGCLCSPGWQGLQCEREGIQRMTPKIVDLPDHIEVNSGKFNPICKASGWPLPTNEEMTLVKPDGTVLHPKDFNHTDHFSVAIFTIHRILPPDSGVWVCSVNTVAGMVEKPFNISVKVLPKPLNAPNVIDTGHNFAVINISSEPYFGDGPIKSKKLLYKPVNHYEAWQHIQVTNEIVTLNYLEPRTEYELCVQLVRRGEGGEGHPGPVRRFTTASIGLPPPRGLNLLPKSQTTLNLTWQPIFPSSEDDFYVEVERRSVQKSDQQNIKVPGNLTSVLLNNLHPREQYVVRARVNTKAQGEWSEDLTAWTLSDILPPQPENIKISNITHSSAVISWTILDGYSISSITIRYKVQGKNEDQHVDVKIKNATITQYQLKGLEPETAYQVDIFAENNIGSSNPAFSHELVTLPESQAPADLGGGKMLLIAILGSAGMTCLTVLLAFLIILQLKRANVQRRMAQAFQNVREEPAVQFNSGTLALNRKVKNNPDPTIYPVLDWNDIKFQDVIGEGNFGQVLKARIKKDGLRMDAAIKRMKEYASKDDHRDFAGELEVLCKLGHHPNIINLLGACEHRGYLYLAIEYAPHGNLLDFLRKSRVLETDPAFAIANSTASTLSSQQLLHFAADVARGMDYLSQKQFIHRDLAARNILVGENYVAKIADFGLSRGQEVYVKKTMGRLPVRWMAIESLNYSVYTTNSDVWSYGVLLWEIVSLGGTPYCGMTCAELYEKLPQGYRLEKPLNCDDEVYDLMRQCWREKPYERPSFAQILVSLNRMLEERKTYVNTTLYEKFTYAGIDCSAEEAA

TGFBR2 (human) = TGFBR2 (human) (UniProt P37173)
ULK1 (human) = ULK1 (human) (UniProt O75385)
ULK2 (human) = ULK2 (human) (UniProt Q8IYT8)

Sequence of ADRBK1 (human) (P25098 whole entry, looked up): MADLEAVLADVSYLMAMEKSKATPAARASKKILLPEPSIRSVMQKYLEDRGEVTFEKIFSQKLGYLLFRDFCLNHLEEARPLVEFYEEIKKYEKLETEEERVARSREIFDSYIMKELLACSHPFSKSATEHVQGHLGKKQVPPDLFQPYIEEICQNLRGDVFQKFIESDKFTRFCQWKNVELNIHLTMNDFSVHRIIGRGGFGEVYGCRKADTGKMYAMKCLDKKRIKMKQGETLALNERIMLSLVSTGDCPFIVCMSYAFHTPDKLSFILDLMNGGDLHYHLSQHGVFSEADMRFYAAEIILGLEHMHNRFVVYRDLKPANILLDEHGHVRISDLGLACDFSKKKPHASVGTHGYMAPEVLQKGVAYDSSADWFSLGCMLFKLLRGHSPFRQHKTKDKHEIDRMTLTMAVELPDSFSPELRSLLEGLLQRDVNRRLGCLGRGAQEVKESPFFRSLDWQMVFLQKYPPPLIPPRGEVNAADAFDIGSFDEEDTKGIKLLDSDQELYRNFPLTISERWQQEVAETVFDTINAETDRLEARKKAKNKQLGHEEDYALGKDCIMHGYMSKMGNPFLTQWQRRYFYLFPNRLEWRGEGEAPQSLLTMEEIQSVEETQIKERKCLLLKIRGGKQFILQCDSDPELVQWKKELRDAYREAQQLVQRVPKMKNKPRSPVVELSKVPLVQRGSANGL

`COc1cc2c(N3CCN(C(=O)Nc4ccc(OC(C)C)cc4)CC3)ncnc2cc1OCCCN1CCCCC1` was tested, and the residual activity (ACVR1B (human)) was 101%, the residual activity (ADRBK1 (human)) was 98% and the residual activity (AXL (human)) was 99%. The residual activity (BMX (human)) was 109%, the residual activity (CAMK4 (human)) was 99.3% and the residual activity (CDK1 CCNA2 (human)) was 96%. For the same compound, the residual activity (CHEK2 (human)) was 100%, the residual activity (CSK (human)) was 99.3% and the residual activity (DAPK3 (human)) was 101%. It also gave a residual activity (DDR2 (human)) of 102%, a residual activity (DYRK2 (human)) of 107% and a residual activity (DYRK4 (human)) of 101%. It also gave a residual activity (EPHA1 (human)) of 96.1%, a residual activity (EPHA8 (human)) of 96.6% and a residual activity (GRK4 (human)) of 106%. The residual activity (GRK7 (human)) was 104%, the residual activity (GSG2 (human)) was 99.5% and the residual activity (GSK3B (human)) was 98.1%. It also gave a residual activity (ITK (human)) of 99%, a residual activity (MAP2K2 (human)) of 116% and a residual activity (MAP3K11 (human)) of 100%. The residual activity (MAP3K5 (human)) was 96.6%, the residual activity (MAP3K9 (human)) was 108% and the residual activity (MAPK1 (human)) was 87%. For the same compound, the residual activity (MELK (human)) was 87.9%, the residual activity (MERTK (human)) was 106% and the residual activity (NEK7 (human)) was 93.4%. The residual activity (NTRK1 (human)) was 48.1%, the residual activity (PHKG1 (human)) was 92.6% and the residual activity (PLK1 (human)) was 101%. The residual activity (PRKCZ (human)) was 103%, the residual activity (PRKD3 (human)) was 97.3% and the residual activity (PRKG1 (human)) was 102% and 82.5%. For the same compound, the residual activity (PTK6 (human)) was 92.9%, the residual activity (ROS1 (human)) was 90.1% and the residual activity (STK33 (human)) was 91.1%. The residual activity (STK39 (human)) was 93.2%, the residual activity (TAOK2 (human)) was 102% and the residual activity (TEK (human)) was 99.6%. For the same compound, the residual activity (TGFBR2 (human)) was 102%, the residual activity (ULK1 (human)) was 92.1% and the residual activity (ULK2 (human)) was 100%.

Compound `FC(F)(F)c1ccc(/C=C/c2nc(COc3ccc(CCCCn4ccnn4)cc3)co2)cc1` has a residual activity (ACVR1B (human)) of 92.8%, a residual activity (ADRBK1 (human)) of 113% and a residual activity (AXL (human)) of 101%. It also gave a residual activity (BMX (human)) of 99%, a residual activity (CAMK4 (human)) of 97.7% and a residual activity (CDK1 CCNA2 (human)) of 92.6%. For the same compound, the residual activity (CHEK2 (human)) was 103%, the residual activity (CSK (human)) was 106% and the residual activity (DAPK3 (human)) was 105%. The residual activity (DDR2 (human)) was 101%, the residual activity (DYRK2 (human)) was 110% and the residual activity (DYRK4 (human)) was 101%. The residual activity (EPHA1 (human)) was 97.2%, the residual activity (EPHA8 (human)) was 104% and the residual activity (GRK4 (human)) was 102%. The residual activity (GRK7 (human)) was 97.8%, the residual activity (GSG2 (human)) was 105% and the residual activity (GSK3B (human)) was 100%. For the same compound, the residual activity (ITK (human)) was 102%, the residual activity (MAP2K2 (human)) was 114% and the residual activity (MAP3K11 (human)) was 99.1%. For the same compound, the residual activity (MAP3K5 (human)) was 97.2%, the residual activity (MAP3K9 (human)) was 105% and the residual activity (MAPK1 (human)) was 88.6%. For the same compound, the residual activity (MELK (human)) was 85.4%, the residual activity (MERTK (human)) was 97.9% and the residual activity (NEK7 (human)) was 94.6%. For the same compound, the residual activity (NTRK1 (human)) was 103%, the residual activity (PHKG1 (human)) was 92.9% and the residual activity (PLK1 (human)) was 98.3%. For the same compound, the residual activity (PRKCZ (human)) was 101%, the residual activity (PRKD3 (human)) was 93.3% and the residual activity (PRKG1 (human)) was 75.9% and 98.1%. The residual activity (PTK6 (human)) was 97.8%, the residual activity (ROS1 (human)) was 93.3% and the residual activity (STK33 (human)) was 93.7%. The residual activity (STK39 (human)) was 88.3%, the residual activity (TAOK2 (human)) was 105% and the residual activity (TEK (human)) was 95.8%. It also gave a residual activity (TGFBR2 (human)) of 103%, a residual activity (ULK1 (human)) of 87.2% and a residual activity (ULK2 (human)) of 99.6%.

For `c1ccc(-c2cnc(Nc3ccc(OCCN4CCCC4)cc3)s2)cc1`, the residual activity (ACVR1B (human)) was 101%, the residual activity (ADRBK1 (human)) was 95.8% and the residual activity (AXL (human)) was 97.1%. For the same compound, the residual activity (BMX (human)) was 84.5%, the residual activity (CAMK4 (human)) was 97.2% and the residual activity (CDK1 CCNA2 (human)) was 95.2%. The residual activity (CHEK2 (human)) was 99.4%, the residual activity (CSK (human)) was 89.9% and the residual activity (DAPK3 (human)) was 105%. For the same compound, the residual activity (DDR2 (human)) was 86.6%, the residual activity (DYRK2 (human)) was 95% and the residual activity (DYRK4 (human)) was 99.4%. The residual activity (EPHA1 (human)) was 85.3%, the residual activity (EPHA8 (human)) was 96.2% and the residual activity (GRK4 (human)) was 98.3%. The residual activity (GRK7 (human)) was 90.2%, the residual activity (GSG2 (human)) was 106% and the residual activity (GSK3B (human)) was 100%. For the same compound, the residual activity (ITK (human)) was 85.2%, the residual activity (MAP2K2 (human)) was 90.2% and the residual activity (MAP3K11 (human)) was 84.4%. For the same compound, the residual activity (MAP3K5 (human)) was 91.1%, the residual activity (MAP3K9 (human)) was 94.3% and the residual activity (MAPK1 (human)) was 83.4%. For the same compound, the residual activity (MELK (human)) was 83.5%, the residual activity (MERTK (human)) was 87.8% and the residual activity (NEK7 (human)) was 100%. It also gave a residual activity (NTRK1 (human)) of 54.1%, a residual activity (PHKG1 (human)) of 45.5% and a residual activity (PLK1 (human)) of 101%. For the same compound, the residual activity (PRKCZ (human)) was 96.3%, the residual activity (PRKD3 (human)) was 74% and the residual activity (PRKG1 (human)) was 96.7% and 100%. It also gave a residual activity (PTK6 (human)) of 80.8%, a residual activity (ROS1 (human)) of 96.9% and a residual activity (STK33 (human)) of 91%. The residual activity (STK39 (human)) was 75.4%, the residual activity (TAOK2 (human)) was 70.7% and the residual activity (TEK (human)) was 102%. The residual activity (TGFBR2 (human)) was 129%, the residual activity (ULK1 (human)) was 127% and the residual activity (ULK2 (human)) was 78.3%.

With `N#CCCc1ccc2c(c1)-c1[nH]c3ccc([N+](=O)[O-])cc3c1CC(=O)N2` the residual activity (ACVR1B (human)) was 110%, the residual activity (ADRBK1 (human)) was 96.4% and the residual activity (AXL (human)) was 95.5%. For the same compound, the residual activity (BMX (human)) was 99.5%, the residual activity (CAMK4 (human)) was 98.4% and the residual activity (CDK1 CCNA2 (human)) was 24.8%. It also gave a residual activity (CHEK2 (human)) of 12.6%, a residual activity (CSK (human)) of 96.3% and a residual activity (DAPK3 (human)) of 99.3%. For the same compound, the residual activity (DDR2 (human)) was 105%, the residual activity (DYRK2 (human)) was 46.8% and the residual activity (DYRK4 (human)) was 100%. For the same compound, the residual activity (EPHA1 (human)) was 91.7%, the residual activity (EPHA8 (human)) was 105% and the residual activity (GRK4 (human)) was 101%. The residual activity (GRK7 (human)) was 97.7%, the residual activity (GSG2 (human)) was 110% and the residual activity (GSK3B (human)) was 2.71%. For the same compound, the residual activity (ITK (human)) was 99.9%, the residual activity (MAP2K2 (human)) was 90.3% and the residual activity (MAP3K11 (human)) was 18.4%. It also gave a residual activity (MAP3K5 (human)) of 101%, a residual activity (MAP3K9 (human)) of 18.2% and a residual activity (MAPK1 (human)) of 119%. It also gave a residual activity (MELK (human)) of 88.6%, a residual activity (MERTK (human)) of 77.5% and a residual activity (NEK7 (human)) of 87.4%. The residual activity (NTRK1 (human)) was 115%, the residual activity (PHKG1 (human)) was 7.72% and the residual activity (PLK1 (human)) was 101%. The residual activity (PRKCZ (human)) was 83.4%, the residual activity (PRKD3 (human)) was 84% and the residual activity (PRKG1 (human)) was 88.4% and 99.3%. For the same compound, the residual activity (PTK6 (human)) was 94.6%, the residual activity (ROS1 (human)) was 71% and the residual activity (STK33 (human)) was 78.8%. The residual activity (STK39 (human)) was 96.4%, the residual activity (TAOK2 (human)) was 86.4% and the residual activity (TEK (human)) was 97.6%. It also gave a residual activity (TGFBR2 (human)) of 10.1%, a residual activity (ULK1 (human)) of 94.2% and a residual activity (ULK2 (human)) of 73.1%.
